Measured values published in ChEMBL document CHEMBL1135798, “Structure-activity relationships of the antimalarial agent artemisinin. 6. The development of predictive in vitro potency models using CoMFA and HQSAR methodologies” (2002).

What follows are molecules tested on Plasmodium falciparum (assay: Antimalarial activity against chloroquine-resistant, mefloquine-sensitive Plasmodium falciparum W2).
Type: functional

Row | Structure (SMILES) | Log RA
1 | CCCN1C(=O)C[C@@H]2CC[C@@H](C)[C@@H]3CC[C@@]4(C)OO[C@@]23[C@H]1O4 | 0.05
2 | CCCC[C@@]12CC[C@H]3[C@H](C)CC[C@H]4CC(=O)O[C@H](O1)[C@]43OO2 | -0.74
3 | COC(=O)C[C@@H](C)OC1O[C@@H]2O[C@@]3(C)CC[C@H]4[C@H](C)CC[C@@H]([C@H]1C)[C@@]24OO3 (some centres undefined) | 1.7
4 | C[C@@H]1CC[C@H]2CCO[C@@H]3O[C@@]4(CCCc5ccc(Cl)cc5)CC[C@@H]1[C@@]23OO4 | -0.55
5 | CCC[C@@H](Cc1ccccc1)OC1O[C@@H]2O[C@@]3(C)CC[C@H]4[C@H](C)CC[C@@H]([C@H]1C)[C@@]24OO3 (some centres undefined) | 0.31
6 | CC(C)C[C@@]12CC[C@H]3[C@H](C)CC[C@H]4CC(=O)O[C@H](O1)[C@]43O2 | -4
7 | CO[C@H]1O[C@@]2(C)CC[C@H]3CCC[C@@H](CCOCc4ccccn4)[C@]31OO2 | 0.17
8 | C[C@@H]1CC[C@H]2C(=O)C(=O)O[C@@H]3O[C@@]4(C)CC[C@@H]1[C@]32OO4 | -2.47
9 | CC(C)CC[C@H]1C(=O)O[C@@H]2O[C@@]3(C)CC[C@H]4[C@H](C)CC[C@@H]1[C@@]24O3 | -4
10 | C[C@@H]1CC[C@H]2[C@@H](C)C(=O)O[C@@H]3O[C@@]4(C)CC[C@@H]1[C@]32O4 [DEOXYARTEMISININ] | -4
11 | COC(=O)c1ccc(COC2O[C@@H]3O[C@@]4(C)CC[C@H]5[C@H](C)CC[C@@H]([C@H]2C)[C@@]35OO4)cc1 (some centres undefined) | -0.07
12 | COC1O[C@@H]2O[C@@]3(C)CC[C@H]4[C@H](C)CC[C@@H]([C@H]1C)[C@@]24OO3 (some centres undefined) | 0.28
13 | C[C@@H]1CC[C@H]2[C@@H](C)C(=O)N(C)[C@@H]3O[C@@]4(C)CC[C@@H]1[C@@]23OO4 | 0.43
14 | CCCCC[C@H]1C(=O)O[C@@H]2O[C@@]3(C)CC[C@H]4[C@H](C)CC[C@@H]1[C@@]24OO3 | 1.02
15 | CCC[C@H](Cc1ccccc1)OC1O[C@@H]2O[C@@]3(C)CC[C@H]4[C@H](C)CC[C@@H]([C@H]1C)[C@@]24OO3 (some centres undefined) | -0.09
16 | CCCCCC[C@H]1C(=O)O[C@@H]2O[C@@]3(C)CC[C@H]4[C@H](C)CC[C@@H]1[C@@]24OO3 | 0.86
17 | CO[C@H]1O[C@@]2(C)CC[C@H]3CCC[C@@H](CCOS(=O)(=O)c4cccc5c(N(C)C)cccc45)[C@]31OO2 | 0.03
18 | C[C@@H]1CC[C@H]2[C@@H](C)CO[C@@H]3O[C@@]4(C)CC[C@@H]1[C@]32O4 | -4
19 | CCCC[C@H]1C(=O)O[C@@H]2O[C@@]3(CCCc4ccc(Cl)cc4)CC[C@H]4[C@H](C)CC[C@@H]1[C@@]24OO3 | -0.28
20 | C[C@@H]1CCC2[C@@H](C)COC3OC(C)(C)OO[C@@]32C1 (some centres undefined) | -0.8
21 | CO[C@H]1O[C@@]2(C)CC[C@H]3CCC[C@@H](CCOC(=O)c4ccc(C(=O)O)cc4)[C@]31OO2 | -0.81
22 | CC[C@@]12CC[C@H]3[C@H](C)CC[C@H]4CCO[C@H](O1)[C@]43OO2 | -1

Row | Structure (SMILES) | Log RA
23 | CCCCC1O[C@@H]2O[C@@]3(C)CC[C@H]4[C@H](C)CC[C@@H]([C@H]1C)[C@@]24OO3 (some centres undefined) | 0.06
24 | C[C@@H]1CC[C@@H]2[C@]34OO[C@](C)(CC[C@@H]13)O[C@H]4OC(Nc1cccc(F)c1)[C@@]2(C)Br (some centres undefined) | 0.79
25 | C/C=C1\C(=O)O[C@@H]2O[C@@]3(C)CC[C@H]4[C@H](C)CC[C@@H]1[C@@]24OO3 | -0.36
26 | CO[C@H]1O[C@]2(C)OO[C@]13[C@H](CCOCc1ccccc1)CCC[C@@H]3CC2(C)C | -1.8
27 | C[C@@H]1CCC2[C@@H](C)COC3OC4(CCCC4)OO[C@@]32C1 (some centres undefined) | -0.26
28 | CCC[C@@]12CC[C@H]3[C@H](C)CC[C@H]4CC(=O)O[C@H](O1)[C@]43OO2 | 0.83
29 | CO[C@@]1(C)CC[C@H]2[C@H](C)CCC[C@]2(C=O)OO1 | -4
30 | CCC[C@H]1C(=O)O[C@@H]2O[C@@]3(C)CC[C@H]4[C@H](C)CC[C@@H]1[C@@]24O3 | -4
31 | C[C@@H]1CC[C@@H]2[C@]34OO[C@](C)(CC[C@@H]13)O[C@H]4OC(OCC(F)(F)F)[C@]2(C)O (some centres undefined) | -0.7
32 | CC1CCO[C@@H]2O[C@@]3(C)CC[C@H]4[C@H](C)CC[C@@H]1[C@@]24OO3 (some centres undefined) | -1.2
33 | COC(=O)CCCOC1O[C@@H]2O[C@@]3(C)CC[C@H]4[C@H](C)CC[C@@H]([C@H]1C)[C@@]24OO3 (some centres undefined) | -0.03
34 | C[C@@H]1CC[C@H]2[C@@H](CCCc3ccccc3)C(=O)O[C@@H]3O[C@@]4(C)CC[C@@H]1[C@]32O4 | -4
35 | COC(=O)[C@H](C)COC1O[C@@H]2O[C@@]3(C)CC[C@H]4[C@H](C)CC[C@@H]([C@H]1C)[C@@]24OO3 (some centres undefined) | 2.25
36 | CCCC[C@H]1C(=O)O[C@@H]2O[C@@]3(CCCC)CC[C@H]4[C@H](C)CC[C@@H]1[C@@]24OO3 | -0.48
37 | CCOC(=O)CC[C@@]12CC[C@H]3[C@H](C)CC[C@H]4CCO[C@H](O1)[C@]43OO2 | 0.7
38 | CC1O[C@@H]2O[C@@]3(C)CC[C@H]4[C@H](C)CC[C@@H]1[C@@]24OO3 (some centres undefined) | -0.64
39 | CO[C@H]1O[C@@]2(C)CC[C@H]3CCC[C@@H](CCOC(=O)c4ccc(C(=O)OCCN(C)C)cc4)[C@]31OO2 | -0.6
40 | C[C@@H]1CC[C@@H]2[C@]34OO[C@](C)(CC[C@@H]13)O[C@H]4OC(Nc1ccccn1)[C@@]2(C)Br (some centres undefined) | -0.09
41 | C[C@@H]1CC[C@H]2[C@@H](C)C(=O)N(Cc3ccccn3)[C@@H]3O[C@@]4(C)CC[C@@H]1[C@@]23OO4 | 1.46
42 | C[C@@H]1CC[C@H]2CC(=O)O[C@@H]3O[C@H]4CC[C@@H]1[C@@]23OO4 | -2.76
43 | CCOC(=O)CC[C@@]12CC[C@H]3[C@H](C)CC[C@H]4CCO[C@H](O1)[C@]43O2 | -4
44 | CCOC1O[C@@H]2O[C@@]3(C)CC[C@H]4[C@H](C)CC[C@H]([C@@]24OO3)[C@@]1(C)O (some centres undefined) | -1.13

Row | Structure (SMILES) | Log RA
45 | CC(C)C[C@@]12CC[C@H]3[C@H](C)CC[C@H]4CC(=O)O[C@H](O1)[C@]43OO2 | -0.35
46 | CCC[C@H]1C(=O)O[C@@H]2O[C@@]3(C)CC[C@H]4[C@H](C)CC[C@@H]1[C@@]24OO3 | 1.13
47 | CCCC[C@H]1CO[C@@H]2O[C@@]3(C)CC[C@H]4[C@H](C)CC[C@@H]1[C@@]24OO3 | 1.32
48 | CCO[C@H]1O[C@@H]2O[C@@]3(C)CC[C@H]4C(C(F)F)CC[C@@H]([C@H]1C)[C@@]24OO3 (some centres undefined) | 0.41
49 | CC[C@@]12CC[C@H]3[C@H](C)CC[C@H]4CC(=O)O[C@H](O1)[C@]43OO2 | 0.05
50 | COC(=O)c1ccccc1S(=O)(=O)OCC[C@@H]1CCC[C@@H]2CC[C@@]3(C)OO[C@]21[C@@H](OC)O3 | -0.87
51 | C[C@@H]1CC[C@H]2[C@@H](CCCc3ccc(Cl)cc3)C(=O)O[C@@H]3O[C@@]4(C)CC[C@@H]1[C@]32OO4 | 1.37
52 | O=S(=O)(c1ccccc1)N1C[C@]2(c3ccccc3)CC[C@@](c3ccccc3)(C1)OO2 | -2.26
53 | CCN(CC)C(=O)OCC[C@@H]1CCC[C@@H]2CC[C@@]3(C)OO[C@]21[C@H](OC)O3 | 0.65
54 | CC(C)C[C@@]12CC[C@H]3[C@H](C)CC[C@H]4CCO[C@H](O1)[C@]43OO2 | 0.4
55 | CC1C(=O)O[C@@H]2C[C@@]3(C)CC[C@H]4[C@H](C)CC[C@@H]1[C@@]24OO3 (some centres undefined) | -0.96
56 | CCO[C@H]1O[C@@H]2O[C@@]3(C)CC[C@H]4C(C=O)CC[C@@H]([C@H]1C)[C@@]24OO3 (some centres undefined) | 0.21
57 | C[C@@H]1CC[C@H]2[C@@H](C)CO[C@H]3C[C@]4(C)CC[C@@H]1[C@@]32OO4 | -2.59
58 | CCO[C@H]1O[C@@H]2O[C@@]3(C)CC[C@H]4C(C)C(=O)C[C@@H]([C@H]1C)[C@@]24OO3 (some centres undefined) | 0.16
59 | CCCC[C@H]1C(=O)O[C@@H]2O[C@@]3(CCC(=O)OCC)CC[C@H]4[C@H](C)CC[C@@H]1[C@@]24OO3 | -1.36
60 | CCOC(=O)CC[C@@]12CC[C@H]3[C@H](C)CC[C@H]4CC(=O)O[C@H](O1)[C@]43OO2 | 0.37
61 | C[C@@H]1CC[C@@H]2[C@]34OO[C@](C)(CC[C@@H]13)O[C@H]4OC(Nc1ncccn1)[C@@]2(C)Br (some centres undefined) | -0.77
62 | CCOC1O[C@@H]2O[C@@]3(C)CC[C@H]4[C@H](C)CC[C@@H]([C@H]1CC)[C@@]24OO3 (some centres undefined) | 0.5
63 | CO[C@H]1O[C@@]2(C)CC[C@H]3CCCC[C@]31OO2 | -0.31
64 | CC(C)CN1C(=O)[C@H](C)[C@@H]2CC[C@@H](C)[C@@H]3CC[C@@]4(C)OO[C@]32[C@H]1O4 | 1.03
